The source made the active and inactive calls.
Assays:
[1] = target: T1, Heat shock factor protein 1 (Mus musculus, UniProt P38532); assay: decrease of HSF1-responsive luciferase luminescence – cell-based, NIH3T3, dose retest, confirmation (AID 2382); assay type: functional;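 further: NIH3T3 fibroblasts with HSF1-driven luciferase reporter stressed by proteasome inhibitor MG132; luminescence from HSF1-driven luciferase expression after 8 hours of MG132 stress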
T1 sequence (P38532 whole entry): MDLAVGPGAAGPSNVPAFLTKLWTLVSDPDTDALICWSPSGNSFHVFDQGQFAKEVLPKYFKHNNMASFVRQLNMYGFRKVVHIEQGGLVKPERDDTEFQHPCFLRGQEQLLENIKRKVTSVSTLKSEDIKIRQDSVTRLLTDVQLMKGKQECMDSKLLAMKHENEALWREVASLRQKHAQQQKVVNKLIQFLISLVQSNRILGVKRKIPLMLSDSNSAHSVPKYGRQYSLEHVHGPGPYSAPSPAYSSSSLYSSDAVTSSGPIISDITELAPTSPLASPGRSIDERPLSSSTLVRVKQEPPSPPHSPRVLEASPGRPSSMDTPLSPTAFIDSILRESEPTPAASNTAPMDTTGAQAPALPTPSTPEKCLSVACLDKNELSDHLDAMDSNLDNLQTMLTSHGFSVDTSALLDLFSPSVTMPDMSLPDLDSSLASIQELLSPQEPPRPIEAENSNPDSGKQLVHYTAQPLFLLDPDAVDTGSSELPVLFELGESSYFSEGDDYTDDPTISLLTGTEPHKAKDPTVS

[2] = Luminescence Cell-Based Dose Response HTS to Identify Inhibitors of 5'UTR Stem-Loop Driven Prion Protein mRNA Translation in H4 Neuroglioblastoma Cells. [Related pubchem assays: 1827 (Project Summary), 1813 (Primary HTS)]; assay type: functional
[3] = luciferase reporter signal suppression in cells – H4 neuroglioma cells, luminescence, dose response (AID 1990); assay type: functional, cell-based
[4] = alpha-synuclein stem-loop luciferase translation blockers – H4 neuroglioma cells, luminescence, confirmation (AID 1988); assay type: functional, cell-based
[5] = target: Cytochrome P450 2C9 (Homo sapiens, UniProt P11712)
Chain of Cytochrome P450 2C9 (P11712 whole entry): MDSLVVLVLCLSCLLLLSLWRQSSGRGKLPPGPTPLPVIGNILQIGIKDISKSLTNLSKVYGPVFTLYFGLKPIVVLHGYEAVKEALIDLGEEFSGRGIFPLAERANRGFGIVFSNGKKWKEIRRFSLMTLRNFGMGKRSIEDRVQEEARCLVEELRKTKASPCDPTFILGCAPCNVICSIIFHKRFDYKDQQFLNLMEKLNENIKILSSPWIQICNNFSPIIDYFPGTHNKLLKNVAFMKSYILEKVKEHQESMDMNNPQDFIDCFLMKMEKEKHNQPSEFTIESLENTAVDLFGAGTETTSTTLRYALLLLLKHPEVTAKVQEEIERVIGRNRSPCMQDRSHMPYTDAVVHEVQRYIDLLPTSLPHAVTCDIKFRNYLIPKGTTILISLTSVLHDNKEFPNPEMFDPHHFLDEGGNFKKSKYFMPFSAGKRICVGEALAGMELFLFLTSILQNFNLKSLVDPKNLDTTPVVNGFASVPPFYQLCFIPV

[6] = target: Cytochrome P450 2D6 (Homo sapiens, UniProt P10635);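 further: CYP2D6 member of a cytochrome P450 panel assay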
Chain of Cytochrome P450 2D6 (P10635 whole entry): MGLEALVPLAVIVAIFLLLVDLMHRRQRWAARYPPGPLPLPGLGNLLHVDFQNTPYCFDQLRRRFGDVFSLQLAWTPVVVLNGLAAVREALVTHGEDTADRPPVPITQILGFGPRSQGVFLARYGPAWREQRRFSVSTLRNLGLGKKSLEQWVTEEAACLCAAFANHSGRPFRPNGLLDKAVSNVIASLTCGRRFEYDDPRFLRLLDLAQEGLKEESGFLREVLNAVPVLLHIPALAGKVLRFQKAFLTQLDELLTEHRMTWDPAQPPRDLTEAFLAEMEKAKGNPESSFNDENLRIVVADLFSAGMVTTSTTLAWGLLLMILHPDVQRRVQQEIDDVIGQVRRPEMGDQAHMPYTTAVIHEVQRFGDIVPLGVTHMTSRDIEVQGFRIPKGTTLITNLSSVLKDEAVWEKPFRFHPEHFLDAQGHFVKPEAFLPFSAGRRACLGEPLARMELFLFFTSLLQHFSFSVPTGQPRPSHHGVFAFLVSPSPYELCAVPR

[7] = target: Cytochrome P450 2C19 (Homo sapiens, UniProt P33261); assay: Cytochrome panel assay with activity outcomes. Panel member name: p450-cyp2c19 Compounds with AC50 equal or less than 10 uM are considered active; assay type: functional
Chain of Cytochrome P450 2C19 (P33261 whole entry): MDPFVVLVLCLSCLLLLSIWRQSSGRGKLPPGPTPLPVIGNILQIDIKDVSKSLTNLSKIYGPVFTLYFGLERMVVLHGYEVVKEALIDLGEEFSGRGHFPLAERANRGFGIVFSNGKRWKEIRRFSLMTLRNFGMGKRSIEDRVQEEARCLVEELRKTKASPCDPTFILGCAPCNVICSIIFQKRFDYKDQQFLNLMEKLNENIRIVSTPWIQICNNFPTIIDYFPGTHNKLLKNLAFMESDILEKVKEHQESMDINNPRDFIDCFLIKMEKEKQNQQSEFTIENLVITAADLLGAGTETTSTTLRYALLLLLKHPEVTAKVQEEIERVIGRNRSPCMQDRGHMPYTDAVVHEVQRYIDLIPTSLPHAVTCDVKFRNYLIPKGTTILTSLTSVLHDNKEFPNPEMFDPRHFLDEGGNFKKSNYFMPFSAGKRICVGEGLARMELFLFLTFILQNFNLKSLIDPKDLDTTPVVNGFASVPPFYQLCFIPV

[8] = target: T2, Corticotropin-releasing factor receptor 2/Corticotropin-releasing factor-binding protein (Homo sapiens, UniProt P24387+Q13324); assay: Dose Response confirmation of uHTS hits for small molecule antagonists of the CRF-binding protein and CRF-R2 receptor complex.; assay type: functional; conditions: read-out: IC50_Mean
T2 sequence (Q13324 whole entry): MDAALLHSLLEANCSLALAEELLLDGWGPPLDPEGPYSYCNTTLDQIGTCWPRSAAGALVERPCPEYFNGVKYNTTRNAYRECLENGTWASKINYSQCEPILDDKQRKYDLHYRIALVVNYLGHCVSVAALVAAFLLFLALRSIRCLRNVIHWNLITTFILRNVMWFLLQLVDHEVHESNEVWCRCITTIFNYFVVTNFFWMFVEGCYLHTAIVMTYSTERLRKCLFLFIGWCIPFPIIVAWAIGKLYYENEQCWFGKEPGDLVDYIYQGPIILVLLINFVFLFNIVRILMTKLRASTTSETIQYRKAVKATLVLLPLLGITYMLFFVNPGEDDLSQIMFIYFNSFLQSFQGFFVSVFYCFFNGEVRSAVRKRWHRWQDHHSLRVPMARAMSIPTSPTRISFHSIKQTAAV
T2 sequence (P24387 whole entry): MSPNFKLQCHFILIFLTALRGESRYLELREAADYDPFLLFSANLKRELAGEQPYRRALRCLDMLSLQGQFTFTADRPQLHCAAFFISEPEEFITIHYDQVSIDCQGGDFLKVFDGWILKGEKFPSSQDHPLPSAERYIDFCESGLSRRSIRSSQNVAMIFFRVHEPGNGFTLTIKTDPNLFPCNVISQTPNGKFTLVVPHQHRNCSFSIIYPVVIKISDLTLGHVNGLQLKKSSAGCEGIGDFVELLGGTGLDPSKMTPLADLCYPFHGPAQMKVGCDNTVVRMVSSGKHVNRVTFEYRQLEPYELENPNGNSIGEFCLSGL

[9] = target: T2, Corticotropin-releasing factor receptor 2/Corticotropin-releasing factor-binding protein; assay: activators of CRF receptor 2 with binding protein – uHTS hits, confirmation (AID 602473); assay type: functional; conditions: read-out: EC50_Mean
[10] = target: T3, Cytochrome P450 1A2 (Homo sapiens, UniProt P05177);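 further: PubChem cytochrome P450 panel assay, CYP1A2 panel member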
T3 sequence (P05177 whole entry): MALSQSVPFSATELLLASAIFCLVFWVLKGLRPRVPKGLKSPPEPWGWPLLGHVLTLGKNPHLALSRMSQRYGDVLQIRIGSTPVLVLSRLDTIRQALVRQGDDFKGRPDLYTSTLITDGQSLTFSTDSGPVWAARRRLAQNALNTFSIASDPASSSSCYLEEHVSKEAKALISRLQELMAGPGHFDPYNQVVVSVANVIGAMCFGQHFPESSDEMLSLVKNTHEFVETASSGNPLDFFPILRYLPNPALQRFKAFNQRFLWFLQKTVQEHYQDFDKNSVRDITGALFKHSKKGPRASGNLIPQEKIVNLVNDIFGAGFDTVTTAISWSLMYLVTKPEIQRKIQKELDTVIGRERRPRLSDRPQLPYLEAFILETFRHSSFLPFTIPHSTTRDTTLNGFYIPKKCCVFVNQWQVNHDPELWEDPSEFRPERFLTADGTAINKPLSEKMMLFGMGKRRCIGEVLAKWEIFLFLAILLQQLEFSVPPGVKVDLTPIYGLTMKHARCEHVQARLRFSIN

## O=C(OCC(=O)N1CCN(C(=O)c2ccco2)CC1)c1sc2cc(F)ccc2c1Cl
[1]
  EC50: > 195 µM (not active)

## CC(C)Cc1nc2n[nH]c(N)c2c2c1COC(C)(C)C2
[2]
  EC50: > 120 µM (not active)
[3]
  EC50: 38.2 µM (active)
[4]
  EC50: 21.4 µM (active)

## Fc1ccccc1CCNCc1cccc(Cl)c1Cl
[5]
  AC50: 39.8 µM (inconclusive)

## O=C(c1ccc(F)cc1)N1CCCC(N2CCN(Cc3ccc4c(c3)OCO4)CC2)C1 (centres undefined)
[1]
  EC50: > 195 µM (not active)

## FC(F)(F)c1cc(Sc2ccccc2)nc(-c2ccccn2)n1
[5]
  AC50: 14.1 µM (inconclusive)
[6]
  AC50: 11.2 µM (inconclusive)

## COc1ccc(-n2nc(C(=O)NCC(=O)Nc3ccccn3)c3ccccc3c2=O)cc1
[5]
  AC50: 1.41 µM (inconclusive)
[7]; read-out: AC50
  AC50: 3.16 µM (inconclusive)

## COc1cccc(COC(=O)c2ccc3c(c2)NC(=O)C(C)S3)c1OC (centres undefined)
[1]
  EC50: > 195 µM (not active)

## CC(C)(C)OC(=O)COc1cc(O)c2c(=O)cc(-c3ccccc3)oc2c1
[1]
  EC50: > 195 µM (not active)

## O=C1OC(N2CCN(C/C=C/c3ccccc3)CC2)c2ccccc21 (centres undefined)
[1]
  EC50: > 195 µM (not active)

## O=C(CSCC(=O)Nc1cccc([N+](=O)[O-])c1)Nc1ccccc1
[8]
  IC50: > 47.1 µM (inactive)
[9]
  EC50: > 53 µM (inactive)

## N#Cc1nc(-c2ccco2)oc1N1CCN(Cc2ccccc2)CC1
[1]
  EC50: > 195 µM (not active)

## Cn1c(SCC(=O)NCc2ccccc2)nc2ccccc21
[1]
  EC50: > 195 µM (not active)

## O=C(c1nc2nc(-c3ccc(Cl)cc3)cc(C(F)(F)F)n2n1)N1CCOCC1
[2]
  EC50: 54.3 µM (active)
[3]
  EC50: 14 µM (active)
[4]
  EC50: 15.9 µM (active)

## Cc1ccc(NC(=O)NCC(c2cccnc2)N2CCOCC2)cc1 (centres undefined)
[1]
  EC50: > 195 µM (not active)

## Oc1ccc2ccccc2c1CN(Cc1c(O)ccc2ccccc12)C1CCCCC1
[5]
  AC50: 7.94 µM (inconclusive)

## CN(C)c1ncc2nc(-c3cccs3)c(=O)n(CCc3ccccc3)c2n1
[10]
  AC50: 5.01 µM (inconclusive)

## NS(=O)(=O)c1ccc(CCNC(=O)C2CCCN2C(=O)OCc2ccccc2)cc1 (centres undefined)
[5]
  AC50: 15.8 µM (inconclusive)
[7]
  AC50: inconclusive

## CNCC/C=C\c1cccnc1
[5]
  AC50: 39.8 µM (inconclusive)
[7]; read-out: AC50
  AC50: 20 µM (inconclusive)
[6]
  AC50: 15.8 µM (inconclusive)

## CCOC(=O)c1c(CC(C)C)csc1N
[8]
  IC50: > 47.1 µM (inactive)
[9]
  EC50: > 53 µM (inactive)

## Cc1ccc(NC(=O)CCC(=O)NNC(=O)c2ccco2)cc1C
[5]
  AC50: 12.6 µM (inconclusive)
[7]; read-out: AC50
  AC50: 17.8 µM (inconclusive)

## COc1ccc(/C=C/c2c([N+](=O)[O-])c(=O)n(C)c(=O)n2C)cc1O
[8]
  IC50: > 47.1 µM (inactive)
[9]
  EC50: > 53 µM (inactive)

## CC(=O)Nc1nonc1NC(=O)c1ccc(C(C)(C)C)cc1
[5]
  AC50: 3.55 µM (inconclusive)
[7]; read-out: AC50
  AC50: 3.55 µM (inconclusive)

## Nc1nc(O)c(Br)c(Oc2ccc(F)cc2)n1
[1]
  EC50: 35.4 µM (active)

## COC(=O)CCCC1=CC2=C(c3ccccc3)C(=O)C(C)(OC(=O)C3CCCC3)C(=O)C2=CN1CCc1ccccn1 (centres undefined)
[8]
  IC50: > 47.1 µM (inactive)
[9]
  EC50: > 53 µM (inactive)

Source: ChEMBL document CHEMBL1201862, “PubChem BioAssay data set” (2004)
